Source: patent publication US11747321B2, “Apparatuses for cell mapping via impedance measurements and methods to operate the same” (President and Fellows of Harvard College, priority 2020, dated 2023)

Columns and labels:
[1] = system: MDCK cells
From the text: Ethylenediaminetetraacetic acid (EDTA) is applied to the cells. EDTA is a calcium chelator that removes Ca^2+ needed for integrin proteins to maintain cell adhesion.
FIG. 6b is a data plot showing mean normalized impedances for different regions of the cell culture over time as specified in the map 601. FIG. 6cc are histograms of the normalized impedance values before, during, and after a washout of EDTA across the array.

[2] = system: MDCK cells; assay: Wound healing assay: electrochemically patterned wound, regrowth measured by impedance mapping; format: cell-based, Canine; details: 1 μM, over 72 hours, control culture shows regrowth
From the text: This example describes a combined application of both the cross-electrode impedance mapping and cell patterning is a wound healing assay.
These assays gauge cell growth rate and metabolism and can be useful for screening drugs affecting these parameters. Compared to the electrochemical patterning described herein, other tools mechanically generate a wound in a cell culture via a mechanical scratch which is both difficult to control and limiting in terms of wound pattern.
In this example, a wound is made in MDCK cells and then the growth is mapped in real-time. […] These patterns were defined by applying electrode currents of −10 nA for 40 s versus a Ag/AgCl pseudo reference electrode. The regrowth of the culture was then measured using the impedance mapping method.

Structure (SMILES)	time course of cell detachment with EDTA applied ([1]; 5 mM EDTA application, normalized impedance maps)	time course of cell re-attachment after EDTA washout ([1]; EDTA washed out by adding normal culture media)	regrowth of wounded cell culture (normalized cross-electrode impedance maps) [2]
O=C(O)CN(CCN(CC(=O)O)CC(=O)O)CC(=O)O [EDTA, Ethylenediaminetetraacetic acid]	~50 min	~200 min	
C=C1[C@@H](C)[C@H]2[C@H](Cc3ccccc3)NC(=O)[C@]23OC(=O)/C=C/[C@H](O)CCC[C@@H](C)C/C=C/[C@H]3[C@@H]1O [cytochalasin B]			very little growth
